We go through 3 compounds from ChEMBL document CHEMBL1147149, “Ecdysteroids from Serratula wolffii roots” (2007).

Each structure is given as a SMILES string. Bounds are passed on as bounds.

The test concerns Acyrthosiphon pisum. In words: Toxicity against larvae of orally dosed Acyrthosiphon pisum Harris. In kind it is functional.
Regarding `CC(C)(O)CC[C@@H](O)[C@](C)(O)[C@H]1CC[C@@]2(O)C3=CC(=O)[C@@H]4C[C@@H](O)[C@@H](O)C[C@]4(C)[C@H]3CC[C@]12C` [20-HYDROXYECDYSONE], the LC50 is listed as 1.07 ppm.

For `C/C(=C\CCC(C)(C)O)[C@H]1CC[C@@]2(O)C3=CC(=O)[C@@H]4C[C@@H](O)[C@@H](O)C[C@]4(C)C3CC[C@]12C` (stereo partly drawn), the median lethal concentration (LC50) was >100 ppm.

`C/C(=C\CCC(C)(C)O)[C@H]1CC[C@@]2(O)C3=CC(=O)[C@@H]4C[C@@H](O)[C@@H](O)[C@@H](O)[C@]4(C)C3CC[C@]12C` (stereo partly drawn) displayed an LC50 of 48.5 ppm.
